Assay results taken from patent publication US20100137449A1, “SUBSTITUTED 1,3-CYCLOPENTADIONE MULTI-TARGET PROTEIN KINASE MODULATORS OF CANCER, ANGIOGENESIS AND THE INFLAMMATORY PATHWAYS ASSOCIATED THEREWITH” (METAPROTEOMICS, LLC, priority 2007, published 2010).

Assays:
Assay in all cases: KinaseProfiler Assay
CK1δ(h) = CK1δ(h) (Homo sapiens, UniProt P48730)
cKit(D816V)(h) = cKit(D816V)(h) (Homo sapiens, UniProt P10721, D816V)
cSRC(h) = cSRC(h) (Homo sapiens, UniProt P12931)
EphA3(h) = target: T1, EphA3(h) (Homo sapiens, UniProt P29320)
T1 sequence (P29320 21-983): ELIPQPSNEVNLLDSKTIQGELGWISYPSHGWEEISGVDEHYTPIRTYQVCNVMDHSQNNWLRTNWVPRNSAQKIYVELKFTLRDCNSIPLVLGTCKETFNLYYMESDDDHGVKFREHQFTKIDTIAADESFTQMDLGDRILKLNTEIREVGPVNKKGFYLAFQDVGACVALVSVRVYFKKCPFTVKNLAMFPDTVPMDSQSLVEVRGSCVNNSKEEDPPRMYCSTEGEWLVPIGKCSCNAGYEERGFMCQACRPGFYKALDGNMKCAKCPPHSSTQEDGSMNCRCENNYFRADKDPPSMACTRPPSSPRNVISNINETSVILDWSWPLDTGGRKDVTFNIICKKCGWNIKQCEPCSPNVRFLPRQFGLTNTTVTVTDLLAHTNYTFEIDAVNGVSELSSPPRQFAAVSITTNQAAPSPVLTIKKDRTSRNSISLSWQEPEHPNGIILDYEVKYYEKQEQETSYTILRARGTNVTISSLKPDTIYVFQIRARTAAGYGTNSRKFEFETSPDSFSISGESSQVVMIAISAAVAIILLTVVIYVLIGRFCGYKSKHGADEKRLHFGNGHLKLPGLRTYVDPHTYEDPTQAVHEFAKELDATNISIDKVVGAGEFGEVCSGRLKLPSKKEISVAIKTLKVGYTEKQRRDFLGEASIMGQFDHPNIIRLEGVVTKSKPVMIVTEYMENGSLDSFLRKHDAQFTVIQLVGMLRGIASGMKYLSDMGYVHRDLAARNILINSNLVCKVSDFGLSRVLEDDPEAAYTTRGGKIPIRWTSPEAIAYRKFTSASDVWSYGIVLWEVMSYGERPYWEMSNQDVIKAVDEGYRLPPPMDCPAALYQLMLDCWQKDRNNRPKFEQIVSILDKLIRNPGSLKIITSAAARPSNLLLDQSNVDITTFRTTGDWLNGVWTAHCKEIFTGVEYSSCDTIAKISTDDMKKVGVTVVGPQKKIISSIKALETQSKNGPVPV

FGFR4(h) = FGFR4(h) (Homo sapiens, UniProt P22455)
Chain of FGFR4(h) (P22455 22-802): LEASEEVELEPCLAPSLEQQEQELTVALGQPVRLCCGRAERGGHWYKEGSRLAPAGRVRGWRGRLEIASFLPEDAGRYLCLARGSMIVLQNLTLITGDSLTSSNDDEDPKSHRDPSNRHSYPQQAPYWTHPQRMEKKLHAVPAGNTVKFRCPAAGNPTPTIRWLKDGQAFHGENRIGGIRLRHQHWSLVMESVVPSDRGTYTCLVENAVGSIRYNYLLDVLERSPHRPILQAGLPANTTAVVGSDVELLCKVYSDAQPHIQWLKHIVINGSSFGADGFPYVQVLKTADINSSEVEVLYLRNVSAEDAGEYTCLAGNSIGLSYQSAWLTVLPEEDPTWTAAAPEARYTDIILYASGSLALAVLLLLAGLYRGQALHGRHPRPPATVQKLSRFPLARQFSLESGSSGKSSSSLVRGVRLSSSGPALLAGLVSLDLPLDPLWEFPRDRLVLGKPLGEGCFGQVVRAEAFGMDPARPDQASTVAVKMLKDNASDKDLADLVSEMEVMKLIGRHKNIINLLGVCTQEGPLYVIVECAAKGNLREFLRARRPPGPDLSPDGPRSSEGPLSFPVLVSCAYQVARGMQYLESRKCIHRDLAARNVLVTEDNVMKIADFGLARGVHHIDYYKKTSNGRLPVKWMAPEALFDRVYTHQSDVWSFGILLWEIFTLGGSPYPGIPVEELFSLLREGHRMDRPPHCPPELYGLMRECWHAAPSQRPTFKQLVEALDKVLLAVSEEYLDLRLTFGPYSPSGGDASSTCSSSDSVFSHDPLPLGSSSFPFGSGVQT

GSK3β(h) = GSK3β(h) (Homo sapiens, UniProt P49841)
Chain of GSK3β(h) (P49841 whole entry): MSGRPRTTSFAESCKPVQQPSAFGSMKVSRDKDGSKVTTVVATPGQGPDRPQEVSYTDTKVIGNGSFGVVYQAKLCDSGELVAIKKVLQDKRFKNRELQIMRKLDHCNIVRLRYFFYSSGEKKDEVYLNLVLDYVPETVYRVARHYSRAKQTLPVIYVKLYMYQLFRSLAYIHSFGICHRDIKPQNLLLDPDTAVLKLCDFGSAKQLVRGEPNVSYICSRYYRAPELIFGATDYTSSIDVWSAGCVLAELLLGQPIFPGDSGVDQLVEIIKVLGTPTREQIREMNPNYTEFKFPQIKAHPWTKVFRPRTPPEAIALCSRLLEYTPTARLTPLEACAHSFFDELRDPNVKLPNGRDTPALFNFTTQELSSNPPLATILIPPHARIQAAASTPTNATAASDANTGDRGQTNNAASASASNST

MAPKAP-K3(h) = MAPKAP-K3(h) (Homo sapiens, UniProt Q16644)
Chain of MAPKAP-K3(h) (Q16644 whole entry): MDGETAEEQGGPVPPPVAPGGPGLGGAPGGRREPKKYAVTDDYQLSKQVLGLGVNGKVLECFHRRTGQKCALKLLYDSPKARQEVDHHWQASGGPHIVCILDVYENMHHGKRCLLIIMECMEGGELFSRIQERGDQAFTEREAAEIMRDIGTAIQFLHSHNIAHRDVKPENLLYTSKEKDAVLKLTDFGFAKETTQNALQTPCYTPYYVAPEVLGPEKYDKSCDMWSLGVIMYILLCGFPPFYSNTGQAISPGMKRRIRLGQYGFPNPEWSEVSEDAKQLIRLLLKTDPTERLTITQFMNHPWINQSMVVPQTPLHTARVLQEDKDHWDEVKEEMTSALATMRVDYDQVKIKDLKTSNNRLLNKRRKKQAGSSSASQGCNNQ

MSK2(h) = MSK2(h) (Homo sapiens, UniProt O75676)
Chain of MSK2(h) (O75676 whole entry): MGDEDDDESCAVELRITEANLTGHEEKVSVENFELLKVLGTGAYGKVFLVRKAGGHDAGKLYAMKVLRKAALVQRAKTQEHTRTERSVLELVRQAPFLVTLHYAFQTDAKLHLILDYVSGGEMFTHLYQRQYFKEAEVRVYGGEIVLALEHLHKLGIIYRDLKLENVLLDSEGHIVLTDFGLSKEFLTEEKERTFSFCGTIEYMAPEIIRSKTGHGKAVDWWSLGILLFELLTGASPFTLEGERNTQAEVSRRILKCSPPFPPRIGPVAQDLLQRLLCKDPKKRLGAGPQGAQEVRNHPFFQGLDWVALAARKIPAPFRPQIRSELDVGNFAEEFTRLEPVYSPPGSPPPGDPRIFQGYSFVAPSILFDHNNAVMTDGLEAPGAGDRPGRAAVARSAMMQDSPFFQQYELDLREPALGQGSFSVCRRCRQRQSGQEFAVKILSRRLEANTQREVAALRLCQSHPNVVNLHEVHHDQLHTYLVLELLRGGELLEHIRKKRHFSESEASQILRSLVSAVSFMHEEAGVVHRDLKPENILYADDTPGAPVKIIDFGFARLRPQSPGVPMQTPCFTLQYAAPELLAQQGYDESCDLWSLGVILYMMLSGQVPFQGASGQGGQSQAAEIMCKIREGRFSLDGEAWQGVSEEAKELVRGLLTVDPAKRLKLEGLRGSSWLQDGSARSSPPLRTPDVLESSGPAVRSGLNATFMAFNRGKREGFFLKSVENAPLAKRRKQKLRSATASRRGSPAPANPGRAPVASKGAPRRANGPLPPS

MSSK1(h) = MSSK1(h) (Homo sapiens, UniProt Q9UPE1)
Chain of MSSK1(h) (Q9UPE1 whole entry): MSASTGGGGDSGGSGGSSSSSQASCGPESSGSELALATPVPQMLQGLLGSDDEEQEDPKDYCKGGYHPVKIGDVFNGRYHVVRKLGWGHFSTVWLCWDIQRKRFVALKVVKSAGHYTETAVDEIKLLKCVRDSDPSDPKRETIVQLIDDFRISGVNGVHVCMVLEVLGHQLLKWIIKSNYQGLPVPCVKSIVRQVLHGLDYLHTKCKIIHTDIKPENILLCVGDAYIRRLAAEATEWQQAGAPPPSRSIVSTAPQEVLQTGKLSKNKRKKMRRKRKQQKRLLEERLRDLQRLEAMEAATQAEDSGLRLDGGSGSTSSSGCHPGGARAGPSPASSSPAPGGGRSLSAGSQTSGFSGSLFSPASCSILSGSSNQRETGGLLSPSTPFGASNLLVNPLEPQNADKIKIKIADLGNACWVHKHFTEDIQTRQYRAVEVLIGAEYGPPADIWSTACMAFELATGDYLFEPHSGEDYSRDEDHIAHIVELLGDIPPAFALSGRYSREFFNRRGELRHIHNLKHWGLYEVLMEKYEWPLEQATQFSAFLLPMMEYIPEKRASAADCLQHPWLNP

NLK(h) = target: T2, NLK(h) (Homo sapiens, UniProt Q9UBE8)
T2 sequence (Q9UBE8 1-527): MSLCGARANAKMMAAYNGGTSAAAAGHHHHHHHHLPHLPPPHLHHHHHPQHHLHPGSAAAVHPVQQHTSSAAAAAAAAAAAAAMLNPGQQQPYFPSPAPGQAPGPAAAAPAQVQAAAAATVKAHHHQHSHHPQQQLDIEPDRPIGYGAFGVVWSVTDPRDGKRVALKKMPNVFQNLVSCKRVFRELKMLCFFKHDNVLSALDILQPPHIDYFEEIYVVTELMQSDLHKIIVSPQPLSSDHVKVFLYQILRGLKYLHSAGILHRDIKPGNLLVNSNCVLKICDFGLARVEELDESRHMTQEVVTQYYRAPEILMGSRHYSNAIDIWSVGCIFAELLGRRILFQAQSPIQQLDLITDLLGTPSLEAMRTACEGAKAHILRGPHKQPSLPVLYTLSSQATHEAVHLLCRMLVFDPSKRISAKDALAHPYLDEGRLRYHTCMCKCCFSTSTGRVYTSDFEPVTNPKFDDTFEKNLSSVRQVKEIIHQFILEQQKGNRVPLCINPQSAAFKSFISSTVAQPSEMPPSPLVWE

ROCK-I(h) = ROCK-I(h) (Homo sapiens, UniProt Q13464)

Chain of CK1δ(h) (P48730 whole entry): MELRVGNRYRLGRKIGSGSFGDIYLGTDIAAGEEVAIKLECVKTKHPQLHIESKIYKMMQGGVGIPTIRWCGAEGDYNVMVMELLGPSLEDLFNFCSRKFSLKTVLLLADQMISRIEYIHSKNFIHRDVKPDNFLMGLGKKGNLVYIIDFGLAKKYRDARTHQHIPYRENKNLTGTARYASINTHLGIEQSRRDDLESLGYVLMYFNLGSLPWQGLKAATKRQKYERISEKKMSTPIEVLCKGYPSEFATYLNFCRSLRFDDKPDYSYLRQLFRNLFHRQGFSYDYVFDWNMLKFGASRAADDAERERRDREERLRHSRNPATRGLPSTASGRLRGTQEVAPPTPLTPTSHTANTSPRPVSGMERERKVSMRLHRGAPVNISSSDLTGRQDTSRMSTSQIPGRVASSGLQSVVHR
Chain of cKit(D816V)(h) (P10721 26-976 D816V): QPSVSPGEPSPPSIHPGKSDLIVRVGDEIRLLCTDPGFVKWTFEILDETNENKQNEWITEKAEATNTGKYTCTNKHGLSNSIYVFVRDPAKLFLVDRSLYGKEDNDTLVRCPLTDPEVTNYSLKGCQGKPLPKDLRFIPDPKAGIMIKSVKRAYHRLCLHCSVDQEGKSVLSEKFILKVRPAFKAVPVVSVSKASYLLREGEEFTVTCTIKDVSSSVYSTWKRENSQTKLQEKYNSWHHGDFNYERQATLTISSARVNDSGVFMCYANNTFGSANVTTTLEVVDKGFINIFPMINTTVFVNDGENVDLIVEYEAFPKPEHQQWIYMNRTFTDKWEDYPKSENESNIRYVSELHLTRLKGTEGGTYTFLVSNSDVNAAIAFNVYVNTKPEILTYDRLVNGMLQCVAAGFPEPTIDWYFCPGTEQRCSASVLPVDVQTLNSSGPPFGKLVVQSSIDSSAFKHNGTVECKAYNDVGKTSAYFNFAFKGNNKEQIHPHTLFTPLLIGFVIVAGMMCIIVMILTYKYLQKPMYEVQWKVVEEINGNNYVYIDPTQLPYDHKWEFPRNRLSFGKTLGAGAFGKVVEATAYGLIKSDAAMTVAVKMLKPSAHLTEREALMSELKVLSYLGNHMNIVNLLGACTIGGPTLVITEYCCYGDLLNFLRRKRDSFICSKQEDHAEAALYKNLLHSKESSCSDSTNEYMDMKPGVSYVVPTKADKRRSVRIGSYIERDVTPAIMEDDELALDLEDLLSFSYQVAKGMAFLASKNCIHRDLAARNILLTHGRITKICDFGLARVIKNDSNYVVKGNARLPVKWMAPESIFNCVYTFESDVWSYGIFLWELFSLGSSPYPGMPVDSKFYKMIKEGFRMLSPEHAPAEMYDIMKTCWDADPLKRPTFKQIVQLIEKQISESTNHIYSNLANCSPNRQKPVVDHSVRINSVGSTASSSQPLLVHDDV
Chain of cSRC(h) (P12931 whole entry): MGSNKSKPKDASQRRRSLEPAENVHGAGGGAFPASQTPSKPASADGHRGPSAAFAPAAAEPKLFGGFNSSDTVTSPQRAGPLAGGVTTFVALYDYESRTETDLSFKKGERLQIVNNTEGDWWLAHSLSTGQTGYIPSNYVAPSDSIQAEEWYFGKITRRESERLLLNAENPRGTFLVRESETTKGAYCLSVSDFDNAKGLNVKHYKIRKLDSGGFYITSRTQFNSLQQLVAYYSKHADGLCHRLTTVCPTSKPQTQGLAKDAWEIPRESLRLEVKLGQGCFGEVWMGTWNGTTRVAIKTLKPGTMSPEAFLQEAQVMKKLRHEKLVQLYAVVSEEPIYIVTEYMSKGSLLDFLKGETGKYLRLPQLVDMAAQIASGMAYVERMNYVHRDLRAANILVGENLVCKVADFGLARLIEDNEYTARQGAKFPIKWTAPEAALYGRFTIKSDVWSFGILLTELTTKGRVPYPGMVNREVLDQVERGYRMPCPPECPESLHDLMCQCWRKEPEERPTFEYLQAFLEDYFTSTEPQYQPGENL

CC(C)CCC(=O)[C@]1(O)C(O)=C(C(=O)C(C)C)C(=O)[C@H]1CCC(C)C [TH2, tetrahydroiso-cohumulone]
kinase inhibition (CK1δ(h); 1 μg/ml): 105% of control | kinase inhibition (CK1δ(h); 5 μg/ml): 112% of control | kinase inhibition (CK1δ(h); 25 μg/ml): 108% of control | kinase inhibition (CK1δ(h); 50 μg/ml): 80% of control | kinase inhibition (CK1δ(h); 100 μg/ml): 53% of control | kinase inhibition (cKit(D816V)(h); 1 μg/ml): 109% of control | kinase inhibition (cKit(D816V)(h); 5 μg/ml): 105% of control | kinase inhibition (cKit(D816V)(h); 25 μg/ml): 98% of control | kinase inhibition (cKit(D816V)(h); 50 μg/ml): 82% of control | kinase inhibition (cKit(D816V)(h); 100 μg/ml): 87% of control | kinase inhibition (cSRC(h); 1 μg/ml): 114% of control | kinase inhibition (cSRC(h); 5 μg/ml): 114% of control | kinase inhibition (cSRC(h); 25 μg/ml): 108% of control | kinase inhibition (cSRC(h); 50 μg/ml): 101% of control | kinase inhibition (cSRC(h); 100 μg/ml): 87% of control | kinase inhibition (EphA3(h); 1 μg/ml): 93% of control | kinase inhibition (EphA3(h); 5 μg/ml): 91% of control | kinase inhibition (EphA3(h); 25 μg/ml): 98% of control | kinase inhibition (EphA3(h); 50 μg/ml): 87% of control | kinase inhibition (EphA3(h); 100 μg/ml): 84% of control | kinase inhibition (FGFR4(h); 1 μg/ml): 89% of control | kinase inhibition (FGFR4(h); 5 μg/ml): 81% of control | kinase inhibition (FGFR4(h); 25 μg/ml): 55% of control | kinase inhibition (FGFR4(h); 50 μg/ml): 64% of control | kinase inhibition (FGFR4(h); 100 μg/ml): 55% of control | kinase inhibition (GSK3β(h); 1 μg/ml): 98% of control | kinase inhibition (GSK3β(h); 5 μg/ml): 86% of control | kinase inhibition (GSK3β(h); 25 μg/ml): 55% of control | kinase inhibition (GSK3β(h); 50 μg/ml): 44% of control | kinase inhibition (GSK3β(h); 100 μg/ml): 40% of control | kinase inhibition (MAPKAP-K3(h); 1 μg/ml): 101% of control | kinase inhibition (MAPKAP-K3(h); 5 μg/ml): 100% of control | kinase inhibition (MAPKAP-K3(h); 25 μg/ml): 109% of control | kinase inhibition (MAPKAP-K3(h); 50 μg/ml): 104% of control | kinase inhibition (MAPKAP-K3(h); 100 μg/ml): 101% of control | kinase inhibition (MSK2(h); 1 μg/ml): 99% of control | kinase inhibition (MSK2(h); 5 μg/ml): 94% of control | kinase inhibition (MSK2(h); 25 μg/ml): 70% of control | kinase inhibition (MSK2(h); 50 μg/ml): 51% of control | kinase inhibition (MSK2(h); 100 μg/ml): 37% of control | kinase inhibition (MSSK1(h); 1 μg/ml): 105% of control | kinase inhibition (MSSK1(h); 5 μg/ml): 84% of control | kinase inhibition (MSSK1(h); 25 μg/ml): 43% of control | kinase inhibition (MSSK1(h); 50 μg/ml): 50% of control | kinase inhibition (MSSK1(h); 100 μg/ml): 39% of control | kinase inhibition (NLK(h); 1 μg/ml): 105% of control | kinase inhibition (NLK(h); 5 μg/ml): 104% of control | kinase inhibition (NLK(h); 25 μg/ml): 98% of control | kinase inhibition (NLK(h); 50 μg/ml): 96% of control | kinase inhibition (NLK(h); 100 μg/ml): 85% of control | kinase inhibition (ROCK-I(h); 1 μg/ml): 110% of control | kinase inhibition (ROCK-I(h); 5 μg/ml): 111% of control | kinase inhibition (ROCK-I(h); 25 μg/ml): 110% of control | kinase inhibition (ROCK-I(h); 50 μg/ml): 100% of control | kinase inhibition (ROCK-I(h); 100 μg/ml): 88% of control
